The target in assay [1] is T1, Substance-P receptor (Homo sapiens, UniProt P25103). Put plainly: Binding Affinity of [3H]- substance P towards Tachykinin receptor 1-CHO cell membranes (n=3-8).
A further assay has as its target T2, Substance-K receptor (Homo sapiens, UniProt P21452).
T2 sequence (P21452 whole entry): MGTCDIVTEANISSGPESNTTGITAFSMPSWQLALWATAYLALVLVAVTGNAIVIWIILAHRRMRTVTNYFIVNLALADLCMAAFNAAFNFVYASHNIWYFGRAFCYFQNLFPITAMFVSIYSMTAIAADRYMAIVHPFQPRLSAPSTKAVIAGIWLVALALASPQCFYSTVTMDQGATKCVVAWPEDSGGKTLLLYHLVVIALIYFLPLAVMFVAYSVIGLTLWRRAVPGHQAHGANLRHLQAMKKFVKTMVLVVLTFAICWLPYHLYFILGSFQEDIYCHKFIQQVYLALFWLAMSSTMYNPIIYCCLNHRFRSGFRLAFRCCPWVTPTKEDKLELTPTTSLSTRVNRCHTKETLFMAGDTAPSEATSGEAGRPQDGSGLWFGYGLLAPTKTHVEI
The assay is classed as cell membranes, CHO.

Assay [2] concerns the target T1, Substance-P receptor. Put plainly: Binding affinity against hTachykinin receptor 1 for the displacement of [3H]-substance P binding from Tachykinin receptor 1 CHO membrane.
A further assay is filed under the species Oryctolagus cuniculus. Put plainly: Antagonism of senktide-induced contraction in rabbit isolated iris sphincter muscle. It counts as functional.

pKi: −log10 of the molar value. Some results are limits rather than exact numbers.

T1 sequence (P25103 whole entry): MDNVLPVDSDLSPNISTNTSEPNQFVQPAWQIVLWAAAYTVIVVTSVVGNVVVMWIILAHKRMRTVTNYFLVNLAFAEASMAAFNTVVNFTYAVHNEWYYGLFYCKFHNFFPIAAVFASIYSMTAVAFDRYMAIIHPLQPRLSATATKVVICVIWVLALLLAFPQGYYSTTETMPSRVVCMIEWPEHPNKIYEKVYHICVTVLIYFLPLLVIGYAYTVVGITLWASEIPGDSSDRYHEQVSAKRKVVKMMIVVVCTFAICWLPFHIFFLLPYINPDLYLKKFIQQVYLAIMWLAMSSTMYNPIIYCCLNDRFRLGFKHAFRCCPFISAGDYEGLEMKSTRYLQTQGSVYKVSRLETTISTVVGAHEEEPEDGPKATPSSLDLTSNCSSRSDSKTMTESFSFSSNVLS

One may read the pKi as −log10 of the Ki, conventionally taken in molar units. A low value points to a high Ki. Regarding `CC[C@H](NC(=O)c1cc(-c2ccccc2)nc2ccccc12)c1ccccc1` [AZD-7624], the pKi at Substance-P receptor [1] was under 4.00; at Substance-K receptor, 6.63.

For `COC(=O)[C@H](NC(=O)c1cc(-c2ccccc2)nc2ccccc12)c1ccccc1`, the negative logarithm of the Ki (pKi) was under 4.00 at Substance-P receptor [1] and 5.08 on Substance-K receptor.

As to `CC[C@H](NC(=O)c1c(C)c(-c2ccccc2)nc2ccccc12)c1ccccc1` [SB-222200], the pKi on Substance-P receptor [1] is under 4.00; on Substance-K receptor, 6.56.

The compound `COc1ccc2c(C(=O)NCc3ccccc3)cc(-c3ccccc3)nc2c1` had a negative logarithm of the Ki (pKi) at Substance-P receptor [2] of under 5.00.

On to `COC(=O)C(NC(=O)c1cc(-c2ccccc2)nc2ccccc12)c1ccccc1` (configuration not stated), for which the pKi is under 4.00 at Substance-P receptor [1] and 5.53 at Substance-K receptor.

As a reminder, the Kb is the affinity of an antagonist, worked out from how it opposes an agonist. The low end stands for higher antagonist affinity, the high end for lower antagonist affinity. On to `CC(=O)N(C)C1(c2ccccc2)CCN(CCC[C@]2(c3ccc(Cl)c(Cl)c3)CCCN(C(=O)c3ccccc3)C2)CC1` [OSANETANT], for which the Kb in the assay listed under Oryctolagus cuniculus was found to be 2 nM.

As for `COC(=O)[C@@H](NC(=O)c1cc(-c2ccccc2)nc2ccccc12)c1ccccc1`, the figures for the pKi at Substance-P receptor [1] and on Substance-K receptor were under 4.00 and 5.91, respectively.

For the origin of these results see ChEMBL document CHEMBL1129332, “2-Phenyl-4-quinolinecarboxamides: a novel class of potent and selective non-peptide competitive antagonists for the human neurokinin-3 receptor” (J Med Chem, 1996).
